Reference: ChEMBL document CHEMBL1773029, “1-Substituted 4-(3-Hydroxyphenyl)piperazines Are Pure Opioid Receptor Antagonists” (ACS Med Chem Lett, 2010)

Assays:
Assay type in all cases: functional, cell-based
[1] = molecular target: Kappa-type opioid receptor (Homo sapiens) (UniProt P41145); test: Antagonist activity at human kappa opioid receptor expressed in CHO cells assessed as inhibition of U69,593 stimulated [35S]GTPgammaS binding
[2] = molecular target: Delta-type opioid receptor (Homo sapiens) (UniProt P41143); test: Antagonist activity at human delta opioid receptor expressed in CHO cells assessed as inhibition of DPDPE stimulated [35S]GTPgammaS binding
Delta-type opioid receptor (Homo sapiens), sequence (P41143 whole entry): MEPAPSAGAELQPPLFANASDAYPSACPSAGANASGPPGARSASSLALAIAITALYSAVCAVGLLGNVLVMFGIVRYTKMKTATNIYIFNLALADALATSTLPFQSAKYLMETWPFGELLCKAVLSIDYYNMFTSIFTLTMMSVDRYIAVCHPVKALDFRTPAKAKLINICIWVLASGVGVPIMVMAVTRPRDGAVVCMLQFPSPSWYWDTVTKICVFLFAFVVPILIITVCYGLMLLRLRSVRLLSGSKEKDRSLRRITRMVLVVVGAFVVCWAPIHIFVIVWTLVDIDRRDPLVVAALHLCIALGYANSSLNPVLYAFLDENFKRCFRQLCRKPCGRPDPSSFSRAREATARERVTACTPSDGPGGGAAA

[3] = molecular target: Mu-type opioid receptor (Homo sapiens) (UniProt P35372); test: Antagonist activity at human mu opioid receptor expressed in CHO cells assessed as inhibition of DAMGO stimulated [35S]GTPgammaS binding
Mu-type opioid receptor (Homo sapiens), sequence (P35372 whole entry): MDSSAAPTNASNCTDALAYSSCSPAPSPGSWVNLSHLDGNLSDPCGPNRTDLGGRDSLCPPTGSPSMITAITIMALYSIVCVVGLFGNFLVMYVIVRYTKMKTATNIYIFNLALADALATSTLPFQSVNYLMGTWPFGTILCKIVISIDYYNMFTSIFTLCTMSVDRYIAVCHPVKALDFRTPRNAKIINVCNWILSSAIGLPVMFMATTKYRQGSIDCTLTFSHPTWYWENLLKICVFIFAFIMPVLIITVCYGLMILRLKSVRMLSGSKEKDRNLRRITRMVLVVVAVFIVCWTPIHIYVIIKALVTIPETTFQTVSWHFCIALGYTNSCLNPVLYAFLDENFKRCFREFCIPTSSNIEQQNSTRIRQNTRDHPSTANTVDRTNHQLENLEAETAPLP

Kappa-type opioid receptor (Homo sapiens), sequence (P41145 whole entry): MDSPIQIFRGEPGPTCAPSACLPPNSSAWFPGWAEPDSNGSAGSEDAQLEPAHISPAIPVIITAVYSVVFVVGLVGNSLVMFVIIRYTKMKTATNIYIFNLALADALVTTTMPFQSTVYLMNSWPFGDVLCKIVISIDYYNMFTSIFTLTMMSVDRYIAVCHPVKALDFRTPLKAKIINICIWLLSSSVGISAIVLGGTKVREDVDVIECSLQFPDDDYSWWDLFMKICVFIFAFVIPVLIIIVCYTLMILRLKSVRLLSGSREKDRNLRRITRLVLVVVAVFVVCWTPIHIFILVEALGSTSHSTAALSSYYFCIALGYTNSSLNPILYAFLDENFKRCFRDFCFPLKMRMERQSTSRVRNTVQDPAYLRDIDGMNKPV

| Compound | Ke [1] | Ke [2] | Ke [3] |
| --- | --- | --- | --- |
| Oc1cccc(N2CCN(CCCc3ccccc3)CC2)c1 | 36.8 nM | 34.3 nM | 8.47 nM |
| C[C@H]1CN(c2cccc(O)c2)[C@@H](C)CN1CCCc1ccccc1 | 19.5 nM | 23.4 nM | 17.9 nM |
| C[C@@H]1CN(CCCc2ccccc2)CCN1c1cccc(O)c1 | 1.57 nM | 6.99 nM | 1.01 nM |
| C[C@H]1CN(CCCc2ccccc2)CC[C@@]1(C)c1cccc(O)c1 | 0.88 nM | 0.9 nM | 0.1 nM |
| C[C@H]1CN(C)CCN1c1cccc(O)c1 | 194 nM | > 10000 nM | 508 nM |
| C[C@@H]1CN(CCCc2ccccc2)[C@@H](C)CN1c1cccc(O)c1 | 22.9 nM | 180 nM | 18 nM |
| C[C@H]1CN(C)CC[C@@]1(C)c1cccc(O)c1 (relative stereo) |  |  | 29.3 nM |
| C[C@H]1CN(CCCc2ccccc2)C[C@H](C)N1c1cccc(O)c1 | 123 nM | 9000 nM | 1650 nM |
| C[C@@H]1CN(c2cccc(O)c2)[C@@H](C)CN1CCCc1ccccc1 | 4.25 nM | 55.3 nM | 6.14 nM |
| C[C@H]1CN(CCCc2ccccc2)CCN1c1cccc(O)c1 | 4.09 nM | 13.4 nM | 0.88 nM |
